Some test systems named below: SF-539; KM12; K562; HCC 2998; SK-MEL-2; OVCAR-4; SF-295; Malme-3M; DLD-1; UACC-62; M14; SK-OV-3; UACC-257; CAKI-1; NCI-H460; UO-31; HL-60; BT-549; PC-3; T47D.
Holding throughout (assay): inhibition of tumour cell growth, NCI panel, 48 h

Each structure is given as a SMILES string.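 All cell lines were grown in 96-well plates and treated with compound for 48 hours. GI50: concentration for 50% inhibition of growth.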 The source made the active and inactive calls. No stated cut-off is given here; in the data, active = GI50 up to about 1.1 µM and inactive = higher. Some results are limits rather than exact numbers.

With `O=C1CCC(=O)c2c1c(O)c1ccncc1c2O`, the GI50 in the test with SF-539 is 15.6 µM (inactive); with KM12, 16.3 µM (inactive); in the test with K562, 18.8 µM (inactive); with HCC 2998 it was 15.4 µM (inactive); with SK-MEL-2, 13.6 µM (inactive); with OVCAR-4, 12.9 µM (inactive). For the same molecule, the GI50 with SF-295 was 18 µM (inactive); with Malme-3M, 16 µM (inactive); with DLD-1, 13.7 µM (inactive); in the test with UACC-62 it was 6.4 µM (inactive); with M14 it was 15.6 µM (inactive); with SK-OV-3, 36.5 µM (inactive). Moreover, the GI50 is 7.5 µM (inactive) in the test on UACC-257; 23.9 µM (inactive) with CAKI-1; 15.1 µM (inactive) in the test with NCI-H460; 15.5 µM (inactive) in the test on UO-31; 7.94 µM (inactive) in the test on HL-60.

Consider `COc1ccc(/C=C/C(=O)c2sc(N)nc2C)cc1`, for which the GI50 in the test on SF-539, with KM12, in the test on K562, with HCC 2998, in the test with SK-MEL-2 and in the test on SF-295 was > 100 µM (inactive) throughout. In addition, the GI50 with Malme-3M, in the test with DLD-1, with UACC-62, with SK-OV-3, in the test with UACC-257 and with CAKI-1 was > 100 µM (inactive) each time. Further, the GI50 in the test on NCI-H460, in the test with UO-31 and in the test on HL-60 was > 100 µM (inactive) in each case.

In the case of `O=C(/C=C/c1ccc(Cl)c(Cl)c1)c1cccc2ccccc12`, the GI50 was 2.96 µM (inactive) in the test on SF-539; 4.4 µM (inactive) in the test with KM12; 3.17 µM (inactive) with K562; 10.4 µM (inactive) in the test with HCC 2998; 7.64 µM (inactive) in the test on OVCAR-4; 11.4 µM (inactive) in the test with SF-295. The GI50 in the test with Malme-3M is 18.4 µM (inactive); in the test on DLD-1, 2.49 µM (inactive); with UACC-62, 12.9 µM (inactive); with M14, 17.1 µM (inactive); in the test with SK-OV-3, 20.3 µM (inactive); with UACC-257, 15.9 µM (inactive). Moreover, the GI50 in the test with CAKI-1 was 7.36 µM (inactive); in the test with NCI-H460, 5.81 µM (inactive); in the test on UO-31, 19.6 µM (inactive); in the test on HL-60, 2.07 µM (inactive).

`NC(=O)N/N=C(\CC1OC(=O)c2ccccc21)c1ccco1` (stereo unspecified): the GI50 in the test on SF-539, with KM12, with K562, in the test with HCC 2998, in the test on SK-MEL-2 and in the test with OVCAR-4 was > 100 µM (inactive) in each case. Moreover, the GI50 with SF-295, with Malme-3M, in the test on DLD-1, with UACC-62, in the test with M14 and with SK-OV-3 was > 100 µM (inactive) in each case. Also, the GI50 in the test on UACC-257, in the test on CAKI-1, in the test on NCI-H460, with UO-31 and with HL-60 was > 100 µM (inactive) in each case.

In the case of `COc1nc(C(Cl)(Cl)Cl)c(Cl)c(OC)c1Cl` [PENCLOMEDINE], the GI50 in the test with BT-549 is 38 µM (inactive); in the test on PC-3, 39.6 µM (inactive); in the test on SF-539 it was 40.8 µM (inactive); in the test with KM12, 33.7 µM (inactive); with K562, 26.4 µM (inactive); with HCC 2998, 46.1 µM (inactive). In addition, the GI50 is 35.1 µM (inactive) with SK-MEL-2; 25.7 µM (inactive) in the test on OVCAR-4; 40.2 µM (inactive) in the test with SF-295; 31.2 µM (inactive) with Malme-3M; 37.4 µM (inactive) in the test on T47D; 42.6 µM (inactive) in the test with DLD-1. The GI50 was 22.4 µM (inactive) with UACC-62; 40 µM (inactive) in the test on M14; 16.2 µM (inactive) in the test on SK-OV-3; 43.8 µM (inactive) in the test with UACC-257; 40.3 µM (inactive) in the test with CAKI-1; 21.9 µM (inactive) in the test on NCI-H460. Also, the GI50 with UO-31 is 40.8 µM (inactive); in the test with HL-60, 7.46 µM (inactive).

Regarding `COC(=O)C(C(=O)C(=O)Nc1nc2ccc([N+](=O)[O-])cc2s1)c1nc2ccc(Cl)cc2nc1O` (stereo unspecified), the GI50 with SF-539, in the test on KM12, with K562, in the test on HCC 2998, in the test on SK-MEL-2 and with OVCAR-4 was > 100 µM (inactive) each time. The GI50 was > 100 µM (inactive) with SF-295; > 100 µM (inactive) in the test on Malme-3M; > 100 µM (inactive) in the test with DLD-1; > 100 µM (inactive) in the test with UACC-62; > 100 µM (inactive) with M14; 35.2 µM (inactive) with SK-OV-3. Besides, the GI50 in the test with UACC-257 was > 100 µM (inactive); with CAKI-1, 71.3 µM (inactive); with NCI-H460 it was > 100 µM (inactive); in the test with UO-31 it was > 100 µM (inactive); in the test with HL-60, > 100 µM (inactive).

Consider `CCCCCCCCCCCCn1[nH]c(C)c(C(=S)SCCCCCCCC)c1=O`, for which the GI50 with SF-539 is 73.8 µM (inactive); with KM12, 70.1 µM (inactive); with K562, 40.3 µM (inactive); in the test with HCC 2998 it was > 96.6 µM (inactive); with SK-MEL-2 it was > 100 µM (inactive); in the test on OVCAR-4, 95.5 µM (inactive). Moreover, the GI50 was > 63 µM (inactive) in the test with SF-295; > 100 µM (inactive) in the test with Malme-3M; 19.6 µM (inactive) with DLD-1; 21.1 µM (inactive) in the test with UACC-62; 56.1 µM (inactive) in the test on M14; > 93.1 µM (inactive) in the test on SK-OV-3. For the same molecule, the GI50 was 41.8 µM (inactive) in the test with UACC-257; 32.1 µM (inactive) in the test with CAKI-1; 61.4 µM (inactive) with NCI-H460; 60.3 µM (inactive) in the test on UO-31; 45.1 µM (inactive) with HL-60.

For `O=C1C=CC(=O)c2c1cc1ccccc1c2O`, the GI50 with BT-549 is 9.38 µM (inactive); in the test with PC-3, 6.03 µM (inactive); in the test with SF-539, 11.6 µM (inactive); with KM12 it was 13.2 µM (inactive); with K562 it was 0.767 µM (active); with HCC 2998, 17.7 µM (inactive). Further, the GI50 with SK-MEL-2 is 14.4 µM (inactive); in the test on OVCAR-4, 2.33 µM (inactive); in the test on SF-295 it was 17.1 µM (inactive); in the test with Malme-3M, 6.18 µM (inactive); in the test on T47D, 1.61 µM (inactive); with DLD-1, 1.66 µM (inactive). For the same molecule, the GI50 was 6.32 µM (inactive) in the test on UACC-62; 10.7 µM (inactive) in the test with M14; 18.4 µM (inactive) in the test on SK-OV-3; 3.18 µM (inactive) in the test with UACC-257; 4.21 µM (inactive) in the test with CAKI-1; 19.1 µM (inactive) in the test with NCI-H460. The GI50 in the test with UO-31 is 3.15 µM (inactive); with HL-60, 0.628 µM (active).

Turning to `CC1COS(=O)O1` (stereo unspecified), the GI50 in the test with SF-539, in the test on KM12, in the test with K562, in the test on HCC 2998, in the test on SK-MEL-2 and with OVCAR-4 was > 100 µM (inactive) each time. In addition, the GI50 with SF-295, with Malme-3M, in the test on DLD-1, with UACC-62, with M14 and in the test with SK-OV-3 was > 100 µM (inactive) in each case. The GI50 in the test with UACC-257, in the test with CAKI-1, with NCI-H460, with UO-31 and in the test with HL-60 was > 100 µM (inactive) throughout.

Regarding `COC(=O)C1=NC(=S)NC(c2ccccc2)C1c1nc2ccccc2o1` (stereo unspecified), the GI50 with SF-539, in the test with KM12, in the test on K562, in the test with HCC 2998, with SK-MEL-2 and in the test with OVCAR-4 was > 50 µM (inactive) throughout. Also, the GI50 in the test on SF-295, in the test on Malme-3M, in the test with DLD-1, with UACC-62, with M14 and with SK-OV-3 was > 50 µM (inactive) throughout. Further, the GI50 in the test on UACC-257, with CAKI-1, in the test on NCI-H460, in the test on UO-31 and in the test on HL-60 was > 50 µM (inactive) throughout.

`Cc1ccc(NC(=O)CCC(CC(=O)C(C)(C)C)=NNC(=O)C(=O)NN)cc1C`: the GI50 in the test on SF-539, in the test on KM12, with K562, in the test on HCC 2998, in the test on SK-MEL-2 and with OVCAR-4 was > 100 µM (inactive) throughout. In addition, the GI50 in the test with SF-295, in the test with Malme-3M, with DLD-1, in the test with UACC-62, in the test on M14 and in the test on SK-OV-3 was > 100 µM (inactive) each time. The GI50 with UACC-257, in the test with CAKI-1, with NCI-H460, in the test on UO-31 and in the test on HL-60 was > 100 µM (inactive) throughout.

In the case of `Cc1ccc(/N=N/c2ccc(N(CCC#N)CCC#N)cc2C)c(Br)c1`, the GI50 with SF-539 was 14.4 µM (inactive); in the test with KM12, 3.5 µM (inactive); with K562, 3.13 µM (inactive); in the test with HCC 2998, 5.28 µM (inactive); in the test on SK-MEL-2, 16.9 µM (inactive); in the test on OVCAR-4, 20.4 µM (inactive). Further, the GI50 in the test on SF-295 is 18.7 µM (inactive); in the test with Malme-3M, 44.2 µM (inactive); in the test on DLD-1, 13.7 µM (inactive); in the test with UACC-62 it was 13.5 µM (inactive); with M14 it was 20.5 µM (inactive); in the test with SK-OV-3 it was 10.3 µM (inactive). The GI50 is 26 µM (inactive) in the test with UACC-257, 2.38 µM (inactive) with CAKI-1, 16.9 µM (inactive) with UO-31 and 5.42 µM (inactive) in the test on HL-60.

Source of the values: ChEMBL document CHEMBL1201862, “PubChem BioAssay data set” (2004).
